Results: patent US11572399B2, “Long-acting GIP peptide analogues” (University of Copenhagen, priority 2017, dated 2023)
Values joined by “and” are separate entries in the source; they are usually repeats but may differ in a detail not shown here. Equal values may be shown once. Read-outs that look alike come from different tables or passages of the source. Peptide text beside a SMILES is read from it. * marks the point of attachment. C16 diacid = O=C(O)CCCCCCCCCCCCCCC(=O)*

Assays:
human GIP receptor [1] = biological target: T1, human GIP receptor (Homo sapiens, UniProt P48546); assay: cAMP accumulation assay, antagonism of a GIP-mediated cAMP response (50-80% of max); assay type: cell-based; settings: for Fold change of IC50 versus GIP(5-30)NH2: fold change of IC50 from GIP(5-30)NH2
T1 construct: host or cells: COS-7, transient transfection (calcium phosphate), cDNA in pCMV-Script
T1 sequence (P48546 22-466): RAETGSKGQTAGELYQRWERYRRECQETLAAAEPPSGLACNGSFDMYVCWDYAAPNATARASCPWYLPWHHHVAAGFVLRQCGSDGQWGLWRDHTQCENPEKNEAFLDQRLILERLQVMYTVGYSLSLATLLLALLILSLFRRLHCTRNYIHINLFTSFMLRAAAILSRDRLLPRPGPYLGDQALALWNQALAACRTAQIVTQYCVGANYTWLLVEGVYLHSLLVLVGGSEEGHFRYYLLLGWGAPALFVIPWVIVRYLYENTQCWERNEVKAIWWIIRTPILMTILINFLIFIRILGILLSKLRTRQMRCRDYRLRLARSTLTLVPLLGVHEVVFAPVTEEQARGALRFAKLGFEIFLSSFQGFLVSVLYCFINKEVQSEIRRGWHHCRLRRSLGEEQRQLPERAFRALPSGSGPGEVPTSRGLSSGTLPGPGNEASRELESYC
Description: The day after, the cells were washed twice with Hepes buffered saline (HBS) buffer and incubated with HBS and 1 mM 3-isobutyl-1-methylxanthine (IBMX) for 30 min at 37° C. […] The HitHunter™ cAMP XS assay (DiscoveRx) was carried out according to the manufacturer's instructions.

human GIP receptor [2] = biological target: T1, human GIP receptor; assay: 125I-human GIP competition binding assay, in the presence and absence of 2% HSA; settings: for Fold change HSA (2%)/Casein (0.1%): IC50 (plus HSA)/IC50 (minus HSA); for Binding (+/−HSA) Fold: fold change +HSA/−HSA; for Fold change in affinity, IC50 (plus HSA)/IC50 (minus HSA): presence vs absence of 2% HSA, proxy for albumin binding;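 as to all read-outs here: nonspecific binding taken as radioligand bound to untransfected cells, IC50 obtained from nonlinear regression fits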
human GIP receptor [3] = biological target: T1, human GIP receptor; assay: cAMP accumulation assay, agonism (ligand alone); assay type: cell-based; settings: Table 1; for Emax: COS-7, intrinsic cAMP activity
[4] = transiently transfected COS-7 cells, Table 1 and text, read-out: cAMP antagonism nM (IC50, antagonistic potency)
[5] = binding in 0.1% casein (absence of HSA), log value, read-out: logIC50 0.1% casein (converted)

Row | Compound | IC50 (human GIP receptor [1]; antagonism of GIP-mediated cAMP response, COS-7 cells, read-out: cAMP accumulation IC50) [nM] | Fold change of IC50 versus GIP(5-30)NH2 (human GIP receptor [1]) | IC50 (human GIP receptor [1]; [4]) [nM] | Fold change HSA (2%)/Casein (0.1%) (human GIP receptor [2]) | IC50 (human GIP receptor [2]; [5]) [nM] | Binding (+/−HSA) Fold (human GIP receptor [2]) | Fold change in affinity, IC50 (plus HSA)/IC50 (minus HSA) (human GIP receptor [2]) [fold] | Emax (human GIP receptor [3]; COS-7 cells) [%] | Ability to antagonize the GIP-mediated cAMP response (in words) (human GIP receptor [1]) | Affinity compared to GIP(3-30)NH2 (in words) (human GIP receptor [2]) | IC50 (human GIP receptor [2]; heterologous competition binding, transiently transfected COS-7 cells expressing the human GIP receptor, log value of the nM column, read-out: Binding log (converted)) | EC50 (human GIP receptor [3]; given as log EC50 (negative sign), read-out: cAMP agonism EC50 (log) (converted)) | Ki (human GIP receptor [2]; absence of HSA) [nM] | IC50 (human GIP receptor [2]; heterologous competition binding, transiently transfected COS-7 cells expressing the human GIP receptor, read-out: Binding) [nM] | EC50 (human GIP receptor [3]; COS-7 cells, read-out: cAMP agonism nM (EC50)) [nM]
1 | CC[C@H](C)[C@H](NC(=O)[C@H](CO)NC(=O)[C@H](Cc1ccc(O)cc1)NC(=O)[C@H](CCCCNC(=O)CCCCCCCCCCCCCCC(=O)O)NC(=O)[C@H](CO)NC(=O)[C@@H](NC(=O)[C@H](Cc1ccccc1)NC(=O)[C@@H](N)[C@@H](C)O)[C@@H](C)CC)C(=O)N[C@@H](C)C(=O)N[C@@H](CCSC)C(=O)N[C@@H](CC(=O)O)C(=O)N[C@@H](CCCCN)C(=O)N[C@H](C(=O)N[C@@H](Cc1c[nH]cn1)C(=O)N[C@@H](CCC(N)=O)C(=O)N[C@@H](CCC(N)=O)C(=O)N[C@@H](CC(=O)O)C(=O)N[C@@H](Cc1ccccc1)C(=O)N[C@H](C(=O)N[C@@H](CC(N)=O)C(=O)N[C@@H](Cc1c[nH]c2ccccc12)C(=O)N[C@@H](CC(C)C)C(=O)N[C@@H](CC(C)C)C(=O)N[C@@H](C)C(=O)N[C@@H](CCC(N)=O)C(=O)N[C@@H](CCCCN)C(N)=O)C(C)C)[C@@H](C)CC [AT171, [hGIP(5-30)NH2[D9K]-C16diacid/9]] (H-TFISK(C16 diacid)YSIAMDKIHQQDFVNWLLAQK-NH2; N-terminus assumed) | 31.6 | 1.1 | 35 | 8.3 | 79.4 | 6.3 | 8.3 | 0 | – | – | – | – | – | – | –
2 | CCCCCCCCCCCCCC(=O)N[C@H](C(=O)N[C@@H](Cc1ccccc1)C(=O)N[C@H](C(=O)N[C@@H](CO)C(=O)N[C@@H](CC(=O)O)C(=O)N[C@@H](Cc1ccc(O)cc1)C(=O)N[C@@H](CO)C(=O)N[C@H](C(=O)N[C@@H](C)C(=O)N[C@@H](CCSC)C(=O)N[C@@H](CC(=O)O)C(=O)N[C@@H](CCCCN)C(=O)N[C@H](C(=O)N[C@@H](Cc1c[nH]cn1)C(=O)N[C@@H](CCC(N)=O)C(=O)N[C@@H](CCC(N)=O)C(=O)N[C@@H](CC(=O)O)C(=O)N[C@@H](Cc1ccccc1)C(=O)N[C@H](C(=O)N[C@@H](CC(N)=O)C(=O)N[C@@H](Cc1c[nH]c2ccccc12)C(=O)N[C@@H](CC(C)C)C(=O)N[C@@H](CC(C)C)C(=O)N[C@@H](C)C(=O)N[C@@H](CCC(N)=O)C(=O)N[C@@H](CCCCN)C(N)=O)C(C)C)[C@@H](C)CC)[C@@H](C)CC)[C@@H](C)CC)[C@@H](C)O [AT121, [hGIP(5-30)NH2—C14/5]] | – | – | 54 | 5.7 | 158 | – | – | 0 | high potent antagonists | affinities in the same range as GIP(3-30)NH2 | – | – | – | – | –
3 | CC[C@H](C)[C@H](NC(=O)[C@H](CO)NC(=O)[C@H](Cc1ccc(O)cc1)NC(=O)[C@H](CC(=O)O)NC(=O)[C@H](CO)NC(=O)[C@@H](NC(=O)[C@H](Cc1ccccc1)NC(=O)[C@@H](N)[C@@H](C)O)[C@@H](C)CC)C(=O)N[C@@H](C)C(=O)N[C@@H](CCSC)C(=O)N[C@@H](CC(=O)O)C(=O)N[C@@H](CCCCN)C(=O)N[C@H](C(=O)N[C@@H](Cc1c[nH]cn1)C(=O)N[C@@H](CCC(N)=O)C(=O)N[C@@H](CCC(N)=O)C(=O)N[C@@H](CC(=O)O)C(=O)N[C@@H](Cc1ccccc1)C(=O)N[C@H](C(=O)N[C@@H](CC(N)=O)C(=O)N[C@@H](Cc1c[nH]c2ccccc12)C(=O)N[C@@H](CC(C)C)C(=O)N[C@@H](CC(C)C)C(=O)N[C@@H](C)C(=O)N[C@@H](CCCCNC(=O)CCCCCCCCCCCCCCC(=O)O)C(=O)N[C@@H](CCCCN)C(N)=O)C(C)C)[C@@H](C)CC [AT189, [hGIP(5-30)NH2[Q29K]-C16diacid/29]] (H-TFISDYSIAMDKIHQQDFVNWLLAK(C16 diacid)K-NH2; N-terminus assumed) | – | 3.0 | 79 | 3.2 | – | 3.2 | – | 12 | – | – | 126 nM and 118 nM | 100 nM and 79.4 nM | – | – | –
4 | CC[C@H](C)[C@H](NC(=O)[C@H](CCCCNC(=O)CCCCCCCCCCCCCCC(=O)O)NC(=O)[C@H](Cc1ccc(O)cc1)NC(=O)[C@H](CC(=O)O)NC(=O)[C@H](CO)NC(=O)[C@@H](NC(=O)[C@H](Cc1ccccc1)NC(=O)[C@@H](N)[C@@H](C)O)[C@@H](C)CC)C(=O)N[C@@H](C)C(=O)N[C@@H](CCSC)C(=O)N[C@@H](CC(=O)O)C(=O)N[C@@H](CCCCN)C(=O)N[C@H](C(=O)N[C@@H](Cc1c[nH]cn1)C(=O)N[C@@H](CCC(N)=O)C(=O)N[C@@H](CCC(N)=O)C(=O)N[C@@H](CC(=O)O)C(=O)N[C@@H](Cc1ccccc1)C(=O)N[C@H](C(=O)N[C@@H](CC(N)=O)C(=O)N[C@@H](Cc1c[nH]c2ccccc12)C(=O)N[C@@H](CC(C)C)C(=O)N[C@@H](CC(C)C)C(=O)N[C@@H](C)C(=O)N[C@@H](CCC(N)=O)C(=O)N[C@@H](CCCCN)C(N)=O)C(C)C)[C@@H](C)CC [AT173, [hGIP(5-30)NH2[S11K]-C16diacid/11]] (H-TFISDYK(C16 diacid)IAMDKIHQQDFVNWLLAQK-NH2; N-terminus assumed) | – | 0.3 | 10 | 7.4 | 7.94 | 9.7 | 7.4 | 0 | highest antagonistic potencies | – | – | – | 6 | 8 | –
5 | CC[C@H](C)[C@H](NC(=O)[C@H](CO)NC(=O)[C@H](Cc1ccc(O)cc1)NC(=O)[C@H](CC(=O)O)NC(=O)[C@H](CO)NC(=O)[C@@H](NC(=O)[C@H](Cc1ccccc1)NC(=O)[C@@H](NC(=O)CCCCCCCCCCCCC(=O)O)[C@@H](C)O)[C@@H](C)CC)C(=O)N[C@@H](C)C(=O)N[C@@H](CCSC)C(=O)N[C@@H](CC(=O)O)C(=O)N[C@@H](CCCCN)C(=O)N[C@H](C(=O)N[C@@H](Cc1c[nH]cn1)C(=O)N[C@@H](CCC(N)=O)C(=O)N[C@@H](CCC(N)=O)C(=O)N[C@@H](CC(=O)O)C(=O)N[C@@H](Cc1ccccc1)C(=O)N[C@H](C(=O)N[C@@H](CC(N)=O)C(=O)N[C@@H](Cc1c[nH]c2ccccc12)C(=O)N[C@@H](CC(C)C)C(=O)N[C@@H](CC(C)C)C(=O)N[C@@H](C)C(=O)N[C@@H](CCC(N)=O)C(=O)N[C@@H](CCCCN)C(N)=O)C(C)C)[C@@H](C)CC [AT136, [hGIP(5-30)NH2—C14diacid/5]] | – | – | – | 15.7 | 50.1 | – | 15.7 | 20 | high potent antagonists | affinities in the same range as GIP(3-30)NH2 | – | – | – | – | 8
